Target: BCL6 (Homo sapiens (Human), UniProt P41182)
Test: Immunofluorescence high content imaging of BCL6 degradation in T47D cells
Format: cell-based
Settings: not given
Procedure: Immunofluorescence Protocol for High Cotent Imaging of BCL6
T47D cells were seeded in 100 μl volume of RPMI1640-10% FBS in a 96-well black/clear bottom plates for adherent lines (Corning #3904).
Day 1. T47D breast cancer epithelial cells were seeded at a density so that confluence is ˜70-90% at endpoint. Cells were seeded at 7K/0.1 ml/well the morning prior to the addition of exemplary bifunctional degradation compounds.
Day 2. Prepare an 11 point 3-fold serial dilution of exemplary bifunctional compound in DMSO and aliquot an appropriate volume to cell growth media to generate a 2× final concentration of exemplary bifunctional compound. Add an equal volume (0.1 ml) of 2× exemplary bifunctional compound/media mix to previously plated cells, for a final top concentration in aqueous cell growth media of 0.1 or 1 μM. Incubate for 3 days at 37° C., 5% CO2.
Day 5 Immunofluorescence. Discard cell media. Wash wells with 200 μl of room temperature phosphate-buffered saline (PBS). Prepared 4% paraformaldehyde (PFA) from 16% PFA (Electron Microscopy Sciences #15710) using 1×PBS. Fifty μl of 4% PF was added to each well and incubate for 15 minutes at room temperature to fix the cells. The PFA was aspirated and the cells washed twice with PBS (200 μl)).
Prepared 0.1% Triton X-100 in PBS using 10% triton X-100 stock. The cells were permeabilized by adding 100 ul of the 0.1% Triton X-100 in PBS to each well to permeabilize cells and incubating at room temperature for 15 minutes. Cells were washed twice with PBS.
Prepared 3% BSA/PBS (from Thermofisher #37515 Blocker BSA in TBS, 10%), and 100 ul was added to each well. The cells were incubated for at least 1 hour at room temperature.
Prepared 1% BSA/PBS using Blocker BSA/PBS, and the 3% BSA/PBS removed from the wells.
For no primary antibody controls, 50 μl 1% BSA/PBS was added.
Primary antibody (BCL6 Rb Ab, CST-14895, Cell Signaling) was diluted 1:300 in 1% BSA/PBS using Blocker BSA/PBS.
Fifty μl of primary antibody added to all remaining wells (i.e., all wells other than the primary antibody controls) and the cells were incubated overnight at 4° C. with slow orbital movement.
Day 6. Contents of the wells was removed and the cells washed four times with 200 ul PBS. 1% BSA/PBS was prepared using Blocker BSA in PBS.
Diluted secondary antibody goat anti-Rb IgG Alexa-488 1:1000, and cell mask-Alexa-647 1:3000 in 1% BSA/PBS in the same mix. Add 50 μl to each well and incubate at room temperature for 1 hour in the dark.
Cells were washed three times with 200 ul PBS, and then incubated for 10 minutes with 100 ul Hoechst dye at 1 μg/mL (20 mM stock) to stain cell nuclei. Wells were then washed with 200 μl PBS, and 100 ul of PBS was added to each well and the plate covered plate with a plastic opaque cover. Plates were stored at 4° C. and covered in aluminum foil until imaged.
Plates were equilibrated to room temperature prior to reading. The bottom of the plate was wiped with 70% isopropanol immediately prior to imaging.
10×, 4 fields/well, include Top hat smoothing in the analysis protocol.

Going from `CCn1c(=O)c(OCC(=O)NC)cc2cc(Nc3cc(N4CCN(C(C)(C)C5CCN(c6ccc7c(c6)C(=O)N(C6CCC(=O)NC6=O)C7=O)CC5)CC4)ncc3Cl)ccc21` (stereo not drawn) [compound 300, 2-{[6-({5-chloro-2-[4-(2-{1-[2-(2,6-dioxopiperidin-3-yl)-1,3-dioxo-2,3-dihydro-1H-isoindol-5-yl]piperidin-4-yl}propan-2-yl)piperazin-1-yl]pyridin-4-yl}amino)-1-ethyl-2-oxo-1,2-dihydroquinolin-3-yl]oxy}-N-methylacetamide] to `Cn1c(=O)c(-c2nnc[nH]2)cc2cc(Nc3nc(N4CCC(CN5CCN(c6ccc7c(c6)C(=O)N(C6CCC(=O)NC6=O)C7=O)CC5)CC4)ncc3Cl)ccc21` (stereo not drawn) [compound 282, 5-(4-{[1-(5-chloro-4-{[1-methyl-2-oxo-3-(4H-1,2,4-triazol-3-yl)-1,2-dihydroquinolin-6-yl]amino}pyrimidin-2-yl)piperidin-4-yl]methyl}piperazin-1-yl)-2-(2,6-dioxopiperidin-3-yl)-2,3-dihydro-1H-isoindole-1,3-dione], the IC50 rises from under 10 nM to at least 100 nM.

Same assay, conditions: T47D

Work on `CCn1c(=O)c(OCC(=O)NC)cc2cc(Nc3cc(N4CCN(C(C)(C)C5CCN(c6ccc7c(c6)C(=O)N(C6CCC(=O)NC6=O)C7=O)CC5)CC4)ncc3Cl)ccc21` (stereo not drawn) [compound 300, 2-{[6-({5-chloro-2-[4-(2-{1-[2-(2,6-dioxopiperidin-3-yl)-1,3-dioxo-2,3-dihydro-1H-isoindol-5-yl]piperidin-4-yl}propan-2-yl)piperazin-1-yl]pyridin-4-yl}amino)-1-ethyl-2-oxo-1,2-dihydroquinolin-3-yl]oxy}-N-methylacetamide] yielded a Dmax of 50 to 70%.

Same assay, conditions: T47D cells

Compared with `CCCC(C1CCN(c2ccc3c(c2)C(=O)N(C2CCC(=O)NC2=O)C3=O)CC1)N1CCN(c2ncc(Cl)c(Nc3ccc4c(c3)cc(OCC(=O)NC)c(=O)n4C)n2)CC1` (stereo not drawn) [compound 338, 2-{[6-({5-chloro-2-[4-(1-{1-[2-(2,6-dioxopiperidin-3-yl)-1,3-dioxo-2,3-dihydro-1H-isoindol-5-yl]piperidin-4-yl}butyl)piperazin-1-yl]pyrimidin-4-yl}amino)-1-methyl-2-oxo-1,2-dihydroquinolin-3-yl]oxy}-N-methylacetamide], `CCn1c(=O)c(OCC(=O)NC)cc2cc(Nc3nc(N4CCN([C@H]5C[C@H](COc6ccc7c(c6)C(=O)N(C6CCC(=O)NC6=O)C7=O)N(C)C5)CC4)ncc3Cl)ccc21` (stereo partly drawn) [compound 371, 2-({6-[(5-chloro-2-{4-[(3S,5R)-5-({[2-(2,6-dioxopiperidin-3-yl)-1,3-dioxo-2,3-dihydro-1H-isoindol-5-yl]oxy}methyl)-1-methylpyrrolidin-3-yl]piperazin-1-yl}pyrimidin-4-yl)amino]-1-ethyl-2-oxo-1,2-dihydroquinolin-3-yl}oxy)-N-methylacetamide] is higher in Dmax: under 50% for the first, 50 to 70% for the second.

`CNC(=O)COc1cc2cc(Nc3nc(N4CCC(OC5CC6(C5)CN(c5ccc(C(=O)NC7CCC(=O)NC7=O)c(OC)c5)C6)CC4)ncc3Cl)ccc2n(C(C)C)c1=O` (stereo not drawn) [compound 429, 4-[6-({1-[5-chloro-4-({3-[(methylcarbamoyl)methoxy]-2-oxo-1-(propan-2-yl)-1,2-dihydroquinolin-6-yl}amino)pyrimidin-2-yl]piperidin-4-yl}oxy)-2-azaspiro[3.3]heptan-2-yl]-N-(2,6-dioxopiperidin-3-yl)-2-methoxybenzamide] and `CNC(=O)COc1cc2cc(Nc3nc(N4CCC5(CC4)CC(OC4CCN(c6cccc7c6C(=O)N(C6CCC(=O)NC6=O)C7=O)CC4)C5)ncc3Cl)ccc2n(C(C)C)c1=O` (stereo not drawn) [compound 393, 2-{[6-({5-chloro-2-[2-({1-[2-(2,6-dioxopiperidin-3-yl)-1,3-dioxo-2,3-dihydro-1H-isoindol-4-yl]piperidin-4-yl}oxy)-7-azaspiro[3.5]nonan-7-yl]pyrimidin-4-yl}amino)-2-oxo-1-(propan-2-yl)-1,2-dihydroquinolin-3-yl]oxy}-N-methylacetamide] cannot be ordered by Dmax: at least 70% for the first, at least 70% for the second.

`CNC(=O)COc1cc2cc(Nc3nc(N4CCN(CC5CCN(c6cccc7c6CN(C6CCC(=O)NC6=O)C7=O)CC5)CC4)ncc3Cl)ccc2n(C(C)C)c1=O` (stereo not drawn) [compound 423, 2-{[6-({5-chloro-2-[4-({1-[2-(2,6-dioxopiperidin-3-yl)-1-oxo-2,3-dihydro-1H-isoindol-4-yl]piperidin-4-yl}methyl)piperazin-1-yl]pyrimidin-4-yl}amino)-2-oxo-1-(propan-2-yl)-1,2-dihydroquinolin-3-yl]oxy}-N-methylacetamide] and `CNC(=O)COc1cc2cc(Nc3nc(N4CCC(CN5CCC(c6cccc7c6C(=O)N(C6CCC(=O)NC6=O)C7=O)CC5)CC4)ncc3Cl)ccc2n(C(C)C)c1=O` (stereo not drawn) [compound 386, 2-{[6-({5-chloro-2-[4-({4-[2-(2,6-dioxopiperidin-3-yl)-1,3-dioxo-2,3-dihydro-1H-isoindol-4-yl]piperidin-1-yl}methyl)piperidin-1-yl]pyrimidin-4-yl}amino)-2-oxo-1-(propan-2-yl)-1,2-dihydroquinolin-3-yl]oxy}-N-methylacetamide] cannot be ordered by Dmax: at least 70% for the first, 50 to 70% for the second.

In the case of `CNC(=O)COc1cc2cc(Nc3nc(N4CCC(CN5CCC(c6ccc(C(=O)NC7CCC(=O)NC7=O)o6)CC5)CC4)ncc3Cl)ccc2n(C)c1=O` (stereo not drawn) [compound 361, 5-[1-({1-[5-chloro-4-({1-methyl-3-[(methylcarbamoyl)methoxy]-2-oxo-1,2-dihydroquinolin-6-yl}amino)pyrimidin-2-yl]piperidin-4-yl}methyl)piperidin-4-yl]-N-(2,6-dioxopiperidin-3-yl)furan-2-carboxamide], the Dmax is reported as under 50%.

Going from `CCCC(C1CCN(c2ccc3c(c2)C(=O)N(C2CCC(=O)NC2=O)C3=O)CC1)N1CCN(c2ncc(Cl)c(Nc3ccc4c(c3)cc(OCC(=O)NC)c(=O)n4C)n2)CC1` (stereo not drawn) [compound 338, 2-{[6-({5-chloro-2-[4-(1-{1-[2-(2,6-dioxopiperidin-3-yl)-1,3-dioxo-2,3-dihydro-1H-isoindol-5-yl]piperidin-4-yl}butyl)piperazin-1-yl]pyrimidin-4-yl}amino)-1-methyl-2-oxo-1,2-dihydroquinolin-3-yl]oxy}-N-methylacetamide] to `CCn1c(=O)c(OCC(=O)NC)cc2cc(Nc3nc(N4CCN([C@H]5C[C@H](COc6ccc7c(c6)C(=O)N(C6CCC(=O)NC6=O)C7=O)N(C)C5)CC4)ncc3Cl)ccc21` (stereo partly drawn) [compound 371, 2-({6-[(5-chloro-2-{4-[(3S,5R)-5-({[2-(2,6-dioxopiperidin-3-yl)-1,3-dioxo-2,3-dihydro-1H-isoindol-5-yl]oxy}methyl)-1-methylpyrrolidin-3-yl]piperazin-1-yl}pyrimidin-4-yl)amino]-1-ethyl-2-oxo-1,2-dihydroquinolin-3-yl}oxy)-N-methylacetamide], the IC50 rises from under 10 nM to at least 100 nM. The first is the more potent here.

`CNC(=O)COc1cc2cc(Nc3nc(N4CCC(OC5CC6(C5)CN(c5ccc(C(=O)NC7CCC(=O)NC7=O)c(OC)c5)C6)CC4)ncc3Cl)ccc2n(C(C)C)c1=O` (stereo not drawn) [compound 429, 4-[6-({1-[5-chloro-4-({3-[(methylcarbamoyl)methoxy]-2-oxo-1-(propan-2-yl)-1,2-dihydroquinolin-6-yl}amino)pyrimidin-2-yl]piperidin-4-yl}oxy)-2-azaspiro[3.3]heptan-2-yl]-N-(2,6-dioxopiperidin-3-yl)-2-methoxybenzamide] and `CNC(=O)COc1cc2cc(Nc3nc(N4CCC5(CC4)CC(OC4CCN(c6cccc7c6C(=O)N(C6CCC(=O)NC6=O)C7=O)CC4)C5)ncc3Cl)ccc2n(C(C)C)c1=O` (stereo not drawn) [compound 393, 2-{[6-({5-chloro-2-[2-({1-[2-(2,6-dioxopiperidin-3-yl)-1,3-dioxo-2,3-dihydro-1H-isoindol-4-yl]piperidin-4-yl}oxy)-7-azaspiro[3.5]nonan-7-yl]pyrimidin-4-yl}amino)-2-oxo-1-(propan-2-yl)-1,2-dihydroquinolin-3-yl]oxy}-N-methylacetamide] cannot be ordered by IC50: under 10 nM for the first, under 10 nM for the second.

`CNC(=O)COc1cc2cc(Nc3nc(N4CCN(CC5CCN(c6cccc7c6CN(C6CCC(=O)NC6=O)C7=O)CC5)CC4)ncc3Cl)ccc2n(C(C)C)c1=O` (stereo not drawn) [compound 423, 2-{[6-({5-chloro-2-[4-({1-[2-(2,6-dioxopiperidin-3-yl)-1-oxo-2,3-dihydro-1H-isoindol-4-yl]piperidin-4-yl}methyl)piperazin-1-yl]pyrimidin-4-yl}amino)-2-oxo-1-(propan-2-yl)-1,2-dihydroquinolin-3-yl]oxy}-N-methylacetamide] and `CNC(=O)COc1cc2cc(Nc3nc(N4CCC(CN5CCC(c6cccc7c6C(=O)N(C6CCC(=O)NC6=O)C7=O)CC5)CC4)ncc3Cl)ccc2n(C(C)C)c1=O` (stereo not drawn) [compound 386, 2-{[6-({5-chloro-2-[4-({4-[2-(2,6-dioxopiperidin-3-yl)-1,3-dioxo-2,3-dihydro-1H-isoindol-4-yl]piperidin-1-yl}methyl)piperidin-1-yl]pyrimidin-4-yl}amino)-2-oxo-1-(propan-2-yl)-1,2-dihydroquinolin-3-yl]oxy}-N-methylacetamide] cannot be ordered by IC50: under 10 nM for the first, under 10 nM for the second.

With `CNC(=O)COc1cc2cc(Nc3nc(N4CCC(CN5CCC(c6ccc(C(=O)NC7CCC(=O)NC7=O)o6)CC5)CC4)ncc3Cl)ccc2n(C)c1=O` (stereo not drawn) [compound 361, 5-[1-({1-[5-chloro-4-({1-methyl-3-[(methylcarbamoyl)methoxy]-2-oxo-1,2-dihydroquinolin-6-yl}amino)pyrimidin-2-yl]piperidin-4-yl}methyl)piperidin-4-yl]-N-(2,6-dioxopiperidin-3-yl)furan-2-carboxamide] the IC50 was 10 to 50 nM.

Same assay, conditions: class symbols A-D, read-out: EC50 (nM)*

`CN1C(=O)CCc2cc(Nc3cc(OC4CCN(CCOCCOc5ccc6c(c5)C(=O)N(C5CCC(=O)NC5=O)C6=O)CC4)c([N+](=O)[O-])cc3Cl)ccc21` (stereo not drawn) [compound 73, 5-(2-(2-(4-(4-chloro-5-((1-methyl-2-oxo-1,2,3,4-tetrahydroquinolin-6-yl)amino)-2-nitrophenoxy)piperidin-1-yl)ethoxy)ethoxy)-2-(2,6-dioxopiperidin-3-yl)isoindoline-1,3-dione] and `CNC(=O)COc1cc2cc(Nc3nc(N4CCC(Cc5cn(CCOCCOCCOc6ccc7c(c6)C(=O)N(C6CCC(=O)NC6=O)C7=O)nn5)CC4)ncc3Cl)ccc2n(C)c1=O` (stereo not drawn) [compound 130, 2-((6-((5-chloro-2-(4-((1-(2-(2-(2-((2-(2,6-dioxopiperidin-3-yl)-1,3-dioxoisoindolin-5-yl)oxy)ethoxy)ethoxy)ethyl)-1H-1,2,3-triazol-4-yl)methyl)piperidin-1-yl)pyrimidin-4-yl)amino)-1-methyl-2-oxo-1,2-dihydroquinolin-3-yl)oxy)-N-methylacetamide] cannot be ordered by DC50: over 100 nM for the first, over 100 nM for the second.

First: CNC(=O)COc1cc2cc(Nc3nc(N4CCC(OCCOCCOCCOCC(=O)N[C@H](C(=O)N5C[C@H](O)C[C@H]5C(=O)NCc5ccc(-c6scnc6C)cc5)C(C)(C)C)CC4)ncc3Cl)ccc2n(C)c1=O [compound 51, (2S,4R)-1-((S)-2-(tert-butyl)-14-((1-(5-chloro-4-((1-methyl-3-(2-(methylamino)-2-oxoethoxy)-2-oxo-1,2-dihydroquinolin-6-yl)amino)pyrimidin-2-yl)piperidin-4-yl)oxy)-4-oxo-6,9,12-trioxa-3-azatetradecanoyl)-4-hydroxy-N-(4-(4-methylthiazol-5-yl)benzyl)pyrrolidine-2-carboxamide]
Second: CNC(=O)COc1cc2cc(Nc3nc(N4CCC(c5cn(CCOc6ccc7c(c6)C(=O)N(C6CCC(=O)NC6=O)C7=O)nn5)CC4)ncc3Cl)ccc2n(C)c1=O (stereo not drawn) [compound 106, 2-((6-((5-chloro-2-(4-(1-(2-((2-(2,6-dioxopiperidin-3-yl)-1,3-dioxoisoindolin-5-yl)oxy)ethyl)-1H-1,2,3-triazol-4-yl)piperidin-1-yl)pyrimidin-4-yl)amino)-1-methyl-2-oxo-1,2-dihydroquinolin-3-yl)oxy)-N-methylacetamide]
The DC50 of the first is higher: over 100 nM for the first, 10 to 50 nM for the second.
